Drawing on BindingDB's records for doi:10.1016/S0960-894X(01)80770-8 (1993), this text covers IC50 and Ki for four molecules.

Where a name gives a salt, the structure may show the parent alone.

The target in assay [1] is S-adenosylmethionine decarboxylase proenzyme (Escherichia coli) (UniProt P0A7F6). Kind of assay: Compound was evaluated for its inhibitory activity against AdoMet-DC from Escherichia coli.
A short description of assay [2]: Compound was evaluated to inactivate the bacterial AdoMet-DC.

Sequence of S-adenosylmethionine decarboxylase proenzyme (Escherichia coli) (P0A7F6 whole entry, looked up): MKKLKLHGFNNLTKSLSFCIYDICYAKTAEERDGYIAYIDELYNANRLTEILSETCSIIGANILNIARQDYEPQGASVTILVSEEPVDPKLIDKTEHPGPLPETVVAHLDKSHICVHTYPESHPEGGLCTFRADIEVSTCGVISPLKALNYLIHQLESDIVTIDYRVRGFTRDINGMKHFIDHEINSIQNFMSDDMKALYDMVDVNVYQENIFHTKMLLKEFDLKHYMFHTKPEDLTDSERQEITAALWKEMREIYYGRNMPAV

The IC50 is the point on the concentration scale where inhibition reaches its midpoint. A lower IC50 goes with higher potency. Turning to `N#CC(N)CCSC[C@H]1O[C@@H](n2cnc3c(N)ncnc32)[C@H](O)[C@@H]1O` (stereo not given in full), in assay [1], the half-inhibitory concentration (IC50) worked out at 179 µM.

In assay [1], `N#CC(N)CCCSC[C@H]1O[C@@H](n2cnc3c(N)ncnc32)[C@H](O)[C@@H]1O` (stereo not given in full) displayed an IC50 of 205 µM.

The molecule `C[S+](CCC(N)C#N)C[C@H]1O[C@@H](n2cnc3c(N)ncnc32)[C@H](O)[C@@H]1O` (stereo partly drawn) [2-amino-4-({[(2S,3S,4R)-5-(6-amino-9H-purin-9-yl)-3,4-dihydroxyoxolan-2-yl]methyl}(methyl)-sulfanyl)butanenitrile dihydrobromide] showed a Ki in assay [2] of 31.1 µM. Besides, the IC50 in assay [1] was determined as 9 µM.

In the case of `C[S+](CCCC(N)C#N)C[C@H]1O[C@@H](n2cnc3c(N)ncnc32)[C@H](O)[C@@H]1O` (stereo partly drawn) [2-amino-5-({[(2S,3S,4R)-5-(6-amino-9H-purin-9-yl)-3,4-dihydroxyoxolan-2-yl]methyl}(methyl)-sulfanyl)pentanenitrile dihydrobromide], the IC50 in assay [1] was 50 µM.
